Reference: patent US20240300991A1, “NUCLEOSIDE DERIVATIVE HAVING MULTI-TARGET KINASE INHIBITORY ACTIVITY AND PHARMACEUTICAL COMPOSITION FOR PREVENTING AND TREATING CANCER COMPRISING SAME” (FUTURE MEDICINE CO., LTD., priority 2021, published 2024)

Columns and labels:
A549 (lung cancer cells) = test: Inhibitory activity against cancer cells (sulforhodamine B staining); type: cell-based; conditions: 3 days, SRB staining
Protocol: (§1) In order to examine the anticancer activity of the nucleoside derivatives of the present invention synthesized in the Preparation Examples, the ICso of each of A549 (lung cancer cells), HCT116 (colon cancer cells), MDA-MB-231 (breast cancer cells), SK-Hep-1 (liver cancer cells), SNU638 (stomach cancer cells) and PC-3 (prostate cancer cells) against cancer cells was measured.
(§2) The test method is as follows. Cells were allowed to stand for 1 day and set as a control on day 0. Further, after a test material was added to the cells, the cells were allowed to stand for 3 days. Thereafter, the cells were stained with 1% acetic acid and 0.4% sulforhodamine B. The stained cells were dried and dissolved in 10 mM Tris (pH 10.0). Absorbance was measured at 515 nm, and the degree of cell division was determined using the following equation. After calculation as Cell division (%)=(average absorbancetest material−average absorbanceday 0)/(average absorbance control-average absorbanceday 0)×100, the degree of cell division was calculated through a non-linear regression analysis using Table Curve 2D v5.01 (Systat Software Inc., San Jose, CA, USA).

[1] = system: MDA-MB-231 (breast cancer cells); test: as above; type: cell-based; conditions: 3 days, SRB staining
Protocol: as §1, §2

[2] = system: SK-Hep-1 (liver cancer cells); test: as above; type: cell-based; conditions: 3 days, SRB staining
Protocol: as §1, §2

[3] = system: PC-3 (prostate cancer cells); test: as above; type: cell-based; conditions: 3 days, SRB staining
Protocol: as §1, §2

[4] = system: SNU638 (stomach cancer cells); test: as above; type: cell-based; conditions: 3 days, SRB staining
Protocol: as §1, §2

[5] = system: HCT116 (colon cancer cells); test: as above; type: cell-based; conditions: 3 days, SRB staining
Protocol: as §1, §2

CSNK1D = target: T1, CSNK1D (Homo sapiens, UniProt P48730); test: Kinase inhibition test (DNA-tagged kinase, affinity resin, qPCR readout); type: binding; parameters: key: (−) indicates no effect; (+) indicates weak inhibitory activity; (++) indicates a moderate level of inhibitory activity; (+++) indicates strong inhibitory activity; conditions: 1 μM of compound
T1 construct: made in house
T1 sequence (P48730 whole entry): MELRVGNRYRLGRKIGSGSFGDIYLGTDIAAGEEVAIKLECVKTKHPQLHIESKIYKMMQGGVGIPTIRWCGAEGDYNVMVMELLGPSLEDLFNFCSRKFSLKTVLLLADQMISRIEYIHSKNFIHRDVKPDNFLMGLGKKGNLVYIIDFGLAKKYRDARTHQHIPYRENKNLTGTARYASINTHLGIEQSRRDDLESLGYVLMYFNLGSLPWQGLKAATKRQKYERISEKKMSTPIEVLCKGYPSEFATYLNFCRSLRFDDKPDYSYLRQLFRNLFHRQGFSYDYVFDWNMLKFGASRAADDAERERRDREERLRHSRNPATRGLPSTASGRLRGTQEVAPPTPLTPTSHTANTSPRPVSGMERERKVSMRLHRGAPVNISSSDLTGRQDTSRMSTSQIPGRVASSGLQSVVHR
Text: (§3) In order to examine the inhibitory activity of the nucleoside derivatives of the present invention synthesized in the Preparation Examples against kinases, the nucleoside derivatives were confirmed to have inhibitory activity against neurotrophic tyrosine kinase receptor type 1 or tropomyosin receptor kinase A (NTRK1), casein kinase 1 isoform delta (CSNK1D), dual specificity tyrosine-phosphorylation-regulated kinase 1A (DYRK1A), dual specificity tyrosine-phosphorylation-regulated kinase 1B (DYRK1B) and receptor-type tyrosine-protein kinase or fms like tyrosine kinase 3 or cluster of differentiation antigen 135 (CD135) or fetal liver kinase-2 (Flk2) (FLT3).
(§4) The inhibition measurement method is as follows. Most of the kinases were produced by culturing a phage in which BL21 E. coli was tagged with a kinase at 32° C. until lysis, followed by centrifugation and filtration. Further, the kinases were produced using HEK-293 cells. Thereafter, the kinases were DNA tagged for qPCR. After an affinity resin was prepared by stirring a biotin-tagged substrate onto streptavidin-coated beads for 30 minutes, a non-specifically bound substrate was washed with a buffer (SeaBlock (Pierce), 1% BSA, 0.05% Tween 20, 1 mM DTT).
(§5) For a kinase test, the kinase, the substrate, the affinity resin, and a test material dissolved in dimethyl sulfoxide were stirred together in a buffer (20% SeaBlock, 0.17×PBS, 0.05% Tween20, and 6 mM DTT) at room temperature for 1 hour. Thereafter, an affinity substrate was washed with a buffer (1×PBS, 0.05% Tween20), and then suspended in an elution buffer (1×PBS, 0.05% Tween20, 0.5 μM non-biotinylated affinity ligand), and the resulting suspension was stirred. The concentration of the kinase was quantified by qPCR.

NTRK1 = target: T2, NTRK1 (Homo sapiens, UniProt P04629); test: as above; type: binding; parameters: key: (−) indicates no effect; (+) indicates weak inhibitory activity; (++) indicates a moderate level of inhibitory activity; (+++) indicates strong inhibitory activity; conditions: 1 μM of compound
T2 construct: made in house
T2 sequence (P04629 33-796): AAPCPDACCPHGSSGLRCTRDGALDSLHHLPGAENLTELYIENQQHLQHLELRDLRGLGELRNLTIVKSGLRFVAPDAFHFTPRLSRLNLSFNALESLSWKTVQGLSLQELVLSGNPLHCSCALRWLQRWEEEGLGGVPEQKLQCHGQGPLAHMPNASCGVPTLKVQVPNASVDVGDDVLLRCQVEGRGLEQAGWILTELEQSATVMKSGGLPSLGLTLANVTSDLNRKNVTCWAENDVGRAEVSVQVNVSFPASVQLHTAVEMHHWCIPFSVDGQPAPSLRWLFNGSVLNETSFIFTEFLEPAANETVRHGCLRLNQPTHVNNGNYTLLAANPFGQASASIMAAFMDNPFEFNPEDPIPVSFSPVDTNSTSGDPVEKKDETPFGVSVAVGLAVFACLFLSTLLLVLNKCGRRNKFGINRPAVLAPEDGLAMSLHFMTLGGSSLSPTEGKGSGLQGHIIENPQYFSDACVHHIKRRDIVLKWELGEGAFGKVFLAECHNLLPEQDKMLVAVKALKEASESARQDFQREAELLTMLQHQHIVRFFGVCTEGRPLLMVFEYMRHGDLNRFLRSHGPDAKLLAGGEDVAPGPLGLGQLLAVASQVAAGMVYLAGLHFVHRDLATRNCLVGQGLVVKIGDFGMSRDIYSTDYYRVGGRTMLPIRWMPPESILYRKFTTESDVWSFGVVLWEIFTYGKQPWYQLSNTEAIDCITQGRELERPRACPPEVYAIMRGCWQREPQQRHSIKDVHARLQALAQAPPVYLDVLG
Text: as §3, §4, §5

DYRK1B = target: T3, DYRK1B (Homo sapiens, UniProt Q9Y463); test: as above; type: binding; parameters: key: (−) indicates no effect; (+) indicates weak inhibitory activity; (++) indicates a moderate level of inhibitory activity; (+++) indicates strong inhibitory activity; conditions: 1 μM of compound
T3 construct: made in house
T3 sequence (Q9Y463 whole entry): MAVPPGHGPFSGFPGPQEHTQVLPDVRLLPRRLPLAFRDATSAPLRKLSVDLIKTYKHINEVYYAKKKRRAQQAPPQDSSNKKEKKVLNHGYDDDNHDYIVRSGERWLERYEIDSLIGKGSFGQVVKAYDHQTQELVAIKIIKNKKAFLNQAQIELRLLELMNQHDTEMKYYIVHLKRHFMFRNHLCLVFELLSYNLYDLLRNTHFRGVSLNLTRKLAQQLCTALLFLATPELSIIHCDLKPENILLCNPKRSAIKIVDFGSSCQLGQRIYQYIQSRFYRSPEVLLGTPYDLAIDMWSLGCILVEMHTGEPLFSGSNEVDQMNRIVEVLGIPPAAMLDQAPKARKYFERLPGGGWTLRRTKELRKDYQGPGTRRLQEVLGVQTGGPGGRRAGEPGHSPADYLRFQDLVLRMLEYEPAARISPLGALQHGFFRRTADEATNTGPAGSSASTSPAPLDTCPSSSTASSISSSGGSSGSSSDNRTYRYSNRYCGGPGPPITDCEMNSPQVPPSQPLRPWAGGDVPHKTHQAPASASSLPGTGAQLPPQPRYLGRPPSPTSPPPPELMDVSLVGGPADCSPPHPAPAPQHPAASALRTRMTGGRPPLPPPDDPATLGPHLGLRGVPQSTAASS
Text: as §3, §4, §5

DYRK1A = target: T4, DYRK1A (Homo sapiens, UniProt Q13627); test: as above; type: binding; parameters: key: (−) indicates no effect; (+) indicates weak inhibitory activity; (++) indicates a moderate level of inhibitory activity; (+++) indicates strong inhibitory activity; conditions: 1 μM of compound
T4 construct: made in house
Text: as §3, §4, §5

## C#Cc1cn([C@@H]2S[C@H](COC(=O)c3c(C)cccc3C)[C@@H](O)[C@H]2O)c2ncnc(N)c12 [Compound 7e]
A549 (lung cancer cells)
  IC50: 6.47 µM
[1]
  IC50: 4.68 µM
[2]
  IC50: 4.39 µM
[3]
  IC50: 5.59 µM
[4]
  IC50: 4.84 µM
[5]
  IC50: 6.42 µM
CSNK1D
  CSNK1D inhibitory activity: ++
NTRK1
  NTRK1 inhibitory activity: +++
DYRK1B
  DYRK1B inhibitory activity: ++
DYRK1A
  DYRK1A inhibitory activity: ++

## C#Cc1cn([C@@H]2S[C@H](COC(=O)c3ccncc3)[C@@H](O)[C@H]2O)c2ncnc(N)c12 [Compound 7f]
A549 (lung cancer cells)
  IC50: 0.07 µM
[1]
  IC50: 0.074 µM
[2]
  IC50: 0.05 µM
[3]
  IC50: 0.078 µM
[4]
  IC50: 0.048 µM
[5]
  IC50: 0.038 µM
CSNK1D
  CSNK1D inhibitory activity: ++
NTRK1
  NTRK1 inhibitory activity: +++
DYRK1B
  DYRK1B inhibitory activity: ++
DYRK1A
  DYRK1A inhibitory activity: ++

## N#Cc1cn([C@@H]2S[C@H](COC(=O)c3ccccc3)[C@@H](O)[C@H]2O)c2ncnc(N)c12 [Compound 7g]
A549 (lung cancer cells)
  IC50: 2.58 µM
[1]
  IC50: 1.56 µM
[2]
  IC50: 5.62 µM
[3]
  IC50: 2.96 µM
[4]
  IC50: 3.78 µM
[5]
  IC50: 3.6 µM
CSNK1D
  CSNK1D inhibitory activity: +++
NTRK1
  NTRK1 inhibitory activity: ++
DYRK1B
  DYRK1B inhibitory activity: +++
DYRK1A
  DYRK1A inhibitory activity: +++

## NC(=O)c1cn([C@@H]2S[C@H](COC(=O)c3ccccc3)[C@@H](O)[C@H]2O)c2ncnc(N)c12 [Compound 7h]
A549 (lung cancer cells)
  IC50: 4.78 µM
[1]
  IC50: 6.79 µM
[2]
  IC50: 5.09 µM
[3]
  IC50: 3.56 µM
[4]
  IC50: 5.23 µM
[5]
  IC50: 1.61 µM
CSNK1D
  CSNK1D inhibitory activity: +++
NTRK1
  NTRK1 inhibitory activity: ++
DYRK1B
  DYRK1B inhibitory activity: +++
DYRK1A
  DYRK1A inhibitory activity: +++

## C#Cc1cn([C@@H]2S[C@H](CNC(=O)c3ccc(OC)cc3)[C@@H](O)[C@H]2O)c2ncnc(N)c12 [Compound 8c]
A549 (lung cancer cells)
  IC50: 10.1 µM
[1]
  IC50: 10.4 µM
[2]
  IC50: 12.2 µM
[3]
  IC50: 14.8 µM
[4]
  IC50: 12.2 µM
[5]
  IC50: 13.7 µM
CSNK1D
  CSNK1D inhibitory activity: ++
NTRK1
  NTRK1 inhibitory activity: +++
DYRK1B
  DYRK1B inhibitory activity: ++
DYRK1A
  DYRK1A inhibitory activity: +++

## N#Cc1cn([C@@H]2S[C@H](CNC(=O)c3ccccc3)[C@@H](O)[C@H]2O)c2ncnc(N)c12 [Compound 8d]
A549 (lung cancer cells)
  IC50: 11.2 µM
[1]
  IC50: 9.34 µM
[2]
  IC50: 13.8 µM
[3]
  IC50: 6.67 µM
[4]
  IC50: 23.7 µM
[5]
  IC50: 8.9 µM
CSNK1D
  CSNK1D inhibitory activity: ++
NTRK1
  NTRK1 inhibitory activity: +++
DYRK1B
  DYRK1B inhibitory activity: +++
DYRK1A
  DYRK1A inhibitory activity: ++

## NC(=O)c1cn([C@@H]2S[C@H](CNC(=O)c3ccccc3)[C@@H](O)[C@H]2O)c2ncnc(N)c12 [Compound 8e]
A549 (lung cancer cells)
  IC50: 45.2 µM
[1]
  IC50: 6.78 µM
[2]
  IC50: 10 µM
[3]
  IC50: 4.65 µM
[4]
  IC50: 9.34 µM
[5]
  IC50: 12.5 µM
CSNK1D
  CSNK1D inhibitory activity: ++
NTRK1
  NTRK1 inhibitory activity: ++
DYRK1B
  DYRK1B inhibitory activity: ++
DYRK1A
  DYRK1A inhibitory activity: ++

## N#Cc1cn([C@@H]2S[C@H](CN=[N+]=[N-])[C@@H](O)[C@H]2O)c2ncnc(N)c12 [Compound 9b]
A549 (lung cancer cells)
  IC50: 0.23 µM
[1]
  IC50: 0.38 µM
[2]
  IC50: 1.05 µM
[3]
  IC50: 0.45 µM
[4]
  IC50: 0.12 µM
[5]
  IC50: 0.56 µM
CSNK1D
  CSNK1D inhibitory activity: +++
NTRK1
  NTRK1 inhibitory activity: +++
DYRK1B
  DYRK1B inhibitory activity: +++
DYRK1A
  DYRK1A inhibitory activity: +++

## [N-]=[N+]=NC[C@H]1S[C@@H](n2cc(C(N)=O)c3c(N)ncnc32)[C@H](O)[C@@H]1O [Compound 9c]
A549 (lung cancer cells)
  IC50: 0.24 µM
[1]
  IC50: 0.26 µM
[2]
  IC50: 0.78 µM
[3]
  IC50: 0.36 µM
[4]
  IC50: 0.35 µM
[5]
  IC50: 0.86 µM
CSNK1D
  CSNK1D inhibitory activity: +++
NTRK1
  NTRK1 inhibitory activity: +++
DYRK1B
  DYRK1B inhibitory activity: +++
DYRK1A
  DYRK1A inhibitory activity: +++
